Earlier results as cited in patent US20070269473A1, “Microbial Encapsulation” (priority 2004, published 2007).

Details: octanol/water; carriers

Acetophenone (1-phenyl-Ethanone) and `COC(=O)c1ccccc1` [Methyl benzoate] are within 0.2 log units of each other in “logP(o/w)” value: 1.7 for the first, 1.8 for the second.

For 1,3,5-trimethyl-Benzene (Mesitylene), the “logP(o/w)” value is given as 3.6.
